Measured values taken from patent publication US9512075B2 (OKAYAMA UNIVERSITY, priority 2012, dated 2016).
In brackets after ≈: the same amount, converted by molar mass. Where two headings read alike, the source gives them in different places.

Experiments:
Format in all cases: cell-based
[1] = tested on: Staphylococcus aureus 209P strain; assay: MIC for Staphylococcus aureus 209P strain; settings: Staphylococcus aureus, read-out: MIC Straphyrococcus aureus 209P
[2] = tested on: Clostridium perfringens PB6K strain; assay: microbe, parasite or virus in culture; settings: CD medium, 37° C. overnight, 10% CO2-containing anaerobic conditions; for MIC: Clostridium perfringens, PB6KSTRAIN, read-out: MIC Clostridium perfringens PB6K, PB6K strain
[3] = tested on: Clostridium difficile JCM1296 strain; assay: microbe, parasite or virus in culture; settings: for MIC: Clostridioides difficile, JCM1296, read-out: MIC Clostridium difficile JCM1296
[4] = tested on: Staphylococcus aureus MRSA No. 17 (methicillin-resistant Staphylococcus aureus: MRSA); assay: MIC for Staphylococcus aureus MRSA No. 17; settings: read-out: MIC Straphyrococcus aureus MRSA No. 17 (MRSA)
[5] = tested on: Escherichia coli K-12 strain; assay: MIC for Escherichia coli K-12 strain; settings: Escherichia coli, K12STRAIN, read-out: MIC Escherichia coli K12
[6] = tested on: Enterococcus faecalis 5038 strain; assay: MIC for Enterococcus faecalis 5038 strain; settings: read-out: MIC Enterococcus faecalis 5038
[7] = tested on: Staphylococcus aureus Smith strain; assay: MIC for Staphylococcus aureus Smith strain; settings: read-out: MIC Straphyrococcus aureus Smith
[8] = tested on: Escherichia coli BE1121 strain; assay: MIC for Escherichia coli BE1121 strain; settings: Escherichia coli, BE1121STRAIN, read-out: MIC Escherichia coli BE1121
[9] = tested on: Enterococcus faecalis NCTC12201 strain (vancomycin-resistant Enterococcus: VRE); assay: MIC for Enterococcus faecalis NCTC12201 strain (VRE); settings: read-out: MIC Enterococcus faecalis NCTC 12201 (VRE)
[10] = 209P strain, regular bouillon medium, 37° C. overnight, turbidity
[11] = MRSA No. 17, regular bouillon medium, 37° C. overnight, turbidity
[12] = K-12 strain, regular bouillon medium, 37° C. overnight, turbidity
[13] = 5038 strain, Heart Infusion Broth medium, 37° C. overnight, turbidity
[14] = Smith strain, regular bouillon medium, 37° C. overnight, turbidity
[15] = BE1121 strain, regular bouillon medium, 37° C. overnight, turbidity
[16] = NCTC12201 strain (VRE), Heart Infusion Broth medium, 37° C. overnight, turbidity

SMILES	MIC [1, 10]	MIC Clostridium perfringens PB6K ([2]; PB6K strain)	MIC Clostridium difficile JCM1296 [3]	MIC [4, 11]	MIC [5, 12]	MIC [6, 13]	MIC [7, 14]	MIC [8, 15]	MIC [9, 16]	MIC [2]	MIC [3]	MIC ([6]; 5038STRAIN)	MIC [9]	MIC ([1]; 209P)	MIC ([4]; MRSA)	MIC [5]	MIC [7]	MIC [8]
CCCCCCCCCCOCC(O)=C1C(=O)N(C(=O)OC(C)(C)C)c2cc(Cl)ccc21 [A012, N-Boc-3-decyloxyacetyl-6-chloro-2-oxyindole]	256 µg/mL (≈ 549 µM)	32 µg/mL (≈ 68.7 µM)	32 µg/mL (≈ 68.7 µM)	256 µg/mL (≈ 549 µM)	256 µg/mL (≈ 549 µM)	256 µg/mL (≈ 549 µM)	256 µg/mL (≈ 549 µM)	256 µg/mL (≈ 549 µM)	256 µg/mL (≈ 549 µM)	–	–	–	–	–	–	–	–	–
CCCCCCCCCC(O)=C1C(=O)N(C(C)=O)c2ccc(Br)cc21 [A026, N-acetyl-5-bromo-3-decanoyl-2-oxyindole]	4 µg/mL (≈ 9.8 µM)	–	–	4 µg/mL (≈ 9.8 µM)	128 µg/mL (≈ 313 µM)	–	0.25 µg/mL (≈ 0.612 µM)	8 µg/mL (≈ 19.6 µM)	–	0.25 µg/mL (≈ 0.612 µM)	< 0.125 µg/mL	< 0.125 µg/mL	< 0.125 µg/mL	–	–	–	–	–
CCCCCCCCCC(O)=C1C(=O)N(C(=O)Nc2ccc(F)cc2)c2ccccc21 [A042, N-(4-fluorophenylaminocarbonyl)-3-decanoyl-2-oxyindole]	256 µg/mL (≈ 603 µM)	–	–	256 µg/mL (≈ 603 µM)	256 µg/mL (≈ 603 µM)	2 µg/mL (≈ 4.71 µM)	0.5 µg/mL (≈ 1.18 µM)	256 µg/mL (≈ 603 µM)	4 µg/mL (≈ 9.42 µM)	1 µg/mL (≈ 2.36 µM)	< 0.125 µg/mL	–	–	–	–	–	–	–
CCCCC1CCC(C(O)=C2C(=O)N(C(=O)OC(C)(C)C)c3ccc(F)cc32)CC1 (stereo not drawn) [A027, N-Boc-3-(4-butylcyclohexylcarbonyl)-5-fluoro-2-oxyindole]	128 µg/mL (≈ 307 µM)	–	–	128 µg/mL (≈ 307 µM)	128 µg/mL (≈ 307 µM)	8 µg/mL (≈ 19.2 µM)	16 µg/mL (≈ 38.3 µM)	128 µg/mL (≈ 307 µM)	8 µg/mL (≈ 19.2 µM)	2 µg/mL (≈ 4.79 µM)	1 µg/mL (≈ 2.4 µM)	–	–	–	–	–	–	–
CCCCCOCC(=O)c1c(O)c2ccccc2oc1=O [B021, 4-hydroxy-3-(pentyloxyacetyl)coumarin]	–	–	–	–	–	–	–	–	–	32 µg/mL (≈ 110 µM)	8 µg/mL (≈ 27.6 µM)	32 µg/mL (≈ 110 µM)	64 µg/mL (≈ 220 µM)	32 µg/mL (≈ 110 µM)	123 µg/mL (≈ 424 µM)	128 µg/mL (≈ 441 µM)	128 µg/mL (≈ 441 µM)	16 µg/mL (≈ 55.1 µM)
CCCCCCCCCCOCC(O)=C1C(=O)N(C(C)=O)c2ccccc21 [A013, N-acetyl-3-decyloxyacetyl-2-oxyindole]	256 µg/mL (≈ 685 µM)	–	–	256 µg/mL (≈ 685 µM)	256 µg/mL (≈ 685 µM)	64 µg/mL (≈ 171 µM)	256 µg/mL (≈ 685 µM)	256 µg/mL (≈ 685 µM)	32 µg/mL (≈ 85.7 µM)	0.5 µg/mL (≈ 1.34 µM)	0.25 µg/mL (≈ 0.669 µM)	–	–	–	–	–	–	–
O=C(NCC(=O)c1c(O)c2ccccc2oc1=O)c1ccccc1 [B013, 3-benzoylaminoacetyl-4-hydroxycoumarin]	256 µg/mL (≈ 792 µM)	–	–	256 µg/mL (≈ 792 µM)	256 µg/mL (≈ 792 µM)	256 µg/mL (≈ 792 µM)	256 µg/mL (≈ 792 µM)	256 µg/mL (≈ 792 µM)	256 µg/mL (≈ 792 µM)	128 µg/mL (≈ 396 µM)	128 µg/mL (≈ 396 µM)	–	–	–	–	–	–	–
CCCCCCCCCC(=O)N1C(=O)/C(=C(\O)COC)c2ccccc21 [A049, N-decanoyl-3-methoxyacetyl-2-oxyindole]	256 µg/mL (≈ 712 µM)	–	–	256 µg/mL (≈ 712 µM)	256 µg/mL (≈ 712 µM)	0.5 µg/mL (≈ 1.39 µM)	1 µg/mL (≈ 2.78 µM)	128 µg/mL (≈ 356 µM)	0.5 µg/mL (≈ 1.39 µM)	0.5 µg/mL (≈ 1.39 µM)	0.5 µg/mL (≈ 1.39 µM)	–	–	–	–	–	–	–
CCCCC1CCC(C(O)=C2C(=O)N(C(=O)Nc3ccccc3)c3ccc(Br)cc32)CC1 (stereo not drawn) [A034, N-(phenylaminocarbonyl)-5-bromo-3-(4-butylcyclohexylcarbonyl)-2-oxyindole]	32 µg/mL (≈ 64.3 µM)	–	–	64 µg/mL (≈ 129 µM)	128 µg/mL (≈ 257 µM)	1 µg/mL (≈ 2.01 µM)	1 µg/mL (≈ 2.01 µM)	128 µg/mL (≈ 257 µM)	1 µg/mL (≈ 2.01 µM)	0.5 µg/mL (≈ 1.01 µM)	0.5 µg/mL (≈ 1.01 µM)	–	–	–	–	–	–	–
CCCCCCCCCC(=O)N1C(=O)C(=C(O)CCCCCCCCC)c2ccccc21 [A005, 1,3-didecanoyl-2-oxyindole]	32 µg/mL (≈ 72.5 µM)	–	–	32 µg/mL (≈ 72.5 µM)	128 µg/mL (≈ 290 µM)	32 µg/mL (≈ 72.5 µM)	64 µg/mL (≈ 145 µM)	128 µg/mL (≈ 290 µM)	32 µg/mL (≈ 72.5 µM)	16 µg/mL (≈ 36.2 µM)	2 µg/mL (≈ 4.53 µM)	–	–	–	–	–	–	–
CCCCCCCCCCOCC(O)=C1C(=O)N(C(=O)Nc2ccc(OC)cc2)c2ccccc21 [A045, N-(4-methoxyphenylaminocarbonyl)-3-decyloxyacetyl-2-oxyindole]	256 µg/mL (≈ 533 µM)	–	–	256 µg/mL (≈ 533 µM)	128 µg/mL (≈ 266 µM)	4 µg/mL (≈ 8.32 µM)	128 µg/mL (≈ 266 µM)	128 µg/mL (≈ 266 µM)	64 µg/mL (≈ 133 µM)	8 µg/mL (≈ 16.6 µM)	0.5 µg/mL (≈ 1.04 µM)	–	–	–	–	–	–	–
CCCCCCCCCCOCC(=O)c1c(O)c2ccccc2oc1=O [B015, 3-decyloxyacetyl-4-hydroxycoumarin]	–	–	–	–	–	–	–	–	–	25 µg/mL (≈ 69.4 µM)	0.25 µg/mL (≈ 0.694 µM)	4 µg/mL (≈ 11.1 µM)	2 µg/mL (≈ 5.55 µM)	8 µg/mL (≈ 22.2 µM)	8 µg/mL (≈ 22.2 µM)	256 µg/mL (≈ 710 µM)	2 µg/mL (≈ 5.55 µM)	128 µg/mL (≈ 355 µM)
CCCCCCCCCCOCC(=O)c1c(O)c2cc(F)ccc2oc1=O [B019, 3-decyloxyacetyl-6-fluoro-4-hydroxycoumarin]	256 µg/mL (≈ 676 µM)	–	–	256 µg/mL (≈ 676 µM)	256 µg/mL (≈ 676 µM)	256 µg/mL (≈ 676 µM)	256 µg/mL (≈ 676 µM)	256 µg/mL (≈ 676 µM)	256 µg/mL (≈ 676 µM)	< 0.125 µg/mL	< 0.125 µg/mL	–	–	–	–	–	–	–
CCCCCCCCCCOCC(O)=C1C(=O)N(C(=O)Nc2ccc(Br)cc2)c2ccccc21 [A038, N-(4-bromophenylaminocarbonyl)-3-decyloxyacetyl-2-oxyindole]	64 µg/mL (≈ 121 µM)	–	–	64 µg/mL (≈ 121 µM)	128 µg/mL (≈ 242 µM)	8 µg/mL (≈ 15.1 µM)	64 µg/mL (≈ 121 µM)	128 µg/mL (≈ 242 µM)	16 µg/mL (≈ 30.2 µM)	16 µg/mL (≈ 30.2 µM)	32 µg/mL (≈ 60.4 µM)	–	–	–	–	–	–	–
CCCCNC(=O)N1C(=O)C(=C(O)C2CCC(CCCC)CC2)c2ccccc21 (stereo not drawn) [A015, N-(butylaminocarbonyl)-3-(4-butylcyclohexylcarbonyl)-2-oxyindole]	256 µg/mL (≈ 642 µM)	–	–	256 µg/mL (≈ 642 µM)	256 µg/mL (≈ 642 µM)	8 µg/mL (≈ 20.1 µM)	256 µg/mL (≈ 642 µM)	256 µg/mL (≈ 642 µM)	8 µg/mL (≈ 20.1 µM)	8 µg/mL (≈ 20.1 µM)	4 µg/mL (≈ 10 µM)	–	–	–	–	–	–	–
CCCCCCCCCC(=O)N1C(=O)/C(=C(\O)COC)c2cc(F)ccc21 [A050, N-decanoyl-3-methoxyacetyl-5-fluoro-2-oxyindole]	256 µg/mL (≈ 678 µM)	–	–	256 µg/mL (≈ 678 µM)	256 µg/mL (≈ 678 µM)	0.5 µg/mL (≈ 1.32 µM)	0.5 µg/mL (≈ 1.32 µM)	128 µg/mL (≈ 339 µM)	0.5 µg/mL (≈ 1.32 µM)	0.5 µg/mL (≈ 1.32 µM)	0.25 µg/mL (≈ 0.662 µM)	–	–	–	–	–	–	–
CCCCCCCCCC(=O)N1C(=O)C(=C(O)c2ccc(OC)cc2)c2ccccc21 [A062, N-decanoyl-3-(4-methoxybenzoyl)-2-oxyindole]	128 µg/mL (≈ 304 µM)	–	–	–	256 µg/mL (≈ 607 µM)	–	–	256 µg/mL (≈ 607 µM)	–	8 µg/mL (≈ 19 µM)	4 µg/mL (≈ 9.49 µM)	2 µg/mL (≈ 4.74 µM)	2 µg/mL (≈ 4.74 µM)	–	16 µg/mL (≈ 38 µM)	–	2 µg/mL (≈ 4.74 µM)	–
